Assay results published in patent publication US20080261945A1, “Compounds Having Activity at Nk3 Receptor and Uses Thereof in Medicine” (SMITHKLINE BEECHAM CORPORATION, priority 2004, published 2008).

Biological target: T1, NK3 receptor (Homo sapiens, UniProt P29371)
T1 construct: expressed in transfected cells; host or cells: CHO cell lines (plasma membrane preparation)
T1 sequence (P29371 1-465): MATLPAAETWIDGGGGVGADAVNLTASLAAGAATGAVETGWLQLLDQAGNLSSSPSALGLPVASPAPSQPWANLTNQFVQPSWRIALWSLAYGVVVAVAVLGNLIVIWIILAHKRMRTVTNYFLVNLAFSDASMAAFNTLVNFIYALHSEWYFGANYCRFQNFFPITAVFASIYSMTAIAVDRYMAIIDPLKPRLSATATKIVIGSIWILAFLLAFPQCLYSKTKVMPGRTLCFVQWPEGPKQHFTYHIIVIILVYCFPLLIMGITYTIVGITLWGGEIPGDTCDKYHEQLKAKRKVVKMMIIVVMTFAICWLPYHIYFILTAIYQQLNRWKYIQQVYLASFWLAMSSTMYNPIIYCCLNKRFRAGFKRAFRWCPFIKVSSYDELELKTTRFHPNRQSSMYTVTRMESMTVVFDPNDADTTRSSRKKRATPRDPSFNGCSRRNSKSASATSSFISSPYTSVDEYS
Experiment: NK3 binding affinity, scintillation proximity assay (SPA)
Conditions: 125I [MePhe7]-NKB; plasma membrane from CHO cell lines expressing NK3 receptors
Procedure: The NK3 binding affinity of the compounds of the invention was determined using the following scintillation proximity assay (SPA) (see H. M. Sarau et al, J. Pharmacol. Experimental Therapeutics 1997, 281(3), 1303-1311; H. M. Sarau et al, J. Pharmacol. Experimental Therapeutics 2000, 295(1), 373-381; G. A. M. Giardina et al J. Med. Chem. 1999, 42, 1053-1065). Polystyrene Leadseeker WGA-SPA beads (Amersham Biosciences) were mixed with plasma membrane prepared from CHO cell lines expressing NK3 receptors in a bead/membrane ratio of 20:1 (w/w) in assay buffer (75 mM Tris pH 7.8, 75 mM NaCl, 4 mM MnCl2, 1 mM EDTA, 0.05% Chaps, 1 mM PMSF). The mixture was placed on ice for 20 minutes to allow the formation of membrane/bead complex before BSA was added to a final concentration of 1%. After another 20 minutes incubation on ice, the bead/membrane complex was washed twice and suspended in assay buffer. ^125I [MePhe7]-NKB was then added to the bead/membrane complex. […] After 2-3 hours incubation at room temperature with shaking, the plates were spun for 2 min at 1100 rpm and measured in Viewlux imager (PerkinElmer) for 5 minutes with a 618-nm filter. Inhibition of the radioactive ligand binding to the NK3 receptor was measured by the reduction of signal. pKi was calculated using Kd of the radioactive ligand determined in a separate experiment.

Ki: 6.31 nM
SMILES: CC[C@H](NC(=O)c1c(COC[C@@H]2CCCN2C)c(-c2ccccc2)nc2ccccc12)c1ccccc1 [Example 1, 3-[({[(2S)-1-Methyl-2-pyrrolidinyl]methyl}oxy)methyl]-2-phenyl-N-[(1S)-1-phenylpropyl]-4-quinolinecarboxamide]
